# Measurements reported in patent publication US20250281433A1, “NOVEL DERIVATIVE COMPOUND HAVING BIPHENYL GROUP INTRODUCED INTO AMINO-ALKANOIC ACID AND ANTI-INFLAMMATORY COMPOSITION COMPRISING SAME” (AMTIXBIO CO., LTD., priority 2020, published 2025).
# How the values were obtained:
# [1] = test system: IL-6 production in RAW264.7 cells; test: LPS-induced IL-6 production in RAW264.7 cells (ELISA); type: cell-based, mouse
# Method: The inhibitory effect on induced IL-6 cytokine production was analyzed. RAW264.7 cells (obtained from the Korean Cell Line Bank) were seeded at a density of 5×10^5 cells/well in a 12-well plate and stabilized in a CO2 incubator at 37° C. with 5% carbon dioxide and saturated humidity. After 24 hours of incubation, the compounds of the present invention were prepared in DMEM at concentrations of 0 μg/mL or 8 μg/mL and pre-treated for 30 minutes. Next, lipopolysaccharide (LPS, Sigma-Aldrich, Cat No. L2887) was treated to a concentration of 1 μg/mL to induce an inflammatory response for 24 hours. Subsequently, mouse IL-6 ELISA kit (Labiskoma, Cat No. K0331230P) and mouse TNF-α ELISA kit (Labiskoma, Cat No. K0331186P) were used according to the manufacturer's instructions, and absorbance was measured. FK506 (FK-506 monohydrate, manufacturer: MilliporeSigma, product number: F4679, U.S.A) was used as a control substance.
# After inducing inflammation as described in (1) and (2) above, the supernatant was collected, and the quantification of IL-6 in the supernatant was performed using the IL-6 ELISA kit (Mouse IL-6 ELISA Kit, pink-ONE, manufactured by Komabiotech, Product No. K0331230P) according to the manufacturer's instructions. Specifically, the amount of IL-6 in the supernatant was quantified according to the ELISA kit protocol, and the absorbance was measured at OD 450 nm using a microplate reader (Multiskan Sky, manufactured by Thermo Fisher Scientific). […] In Table 1 to Table 3, FIG. 1, and FIG. 2, the relative values of IL-6 generated after pretreatment with the compounds of the present invention were expressed as a percentage relative to the IL-6 production (100%) induced by LPS, TNF-α, or IFN-β treatment.
# [2] = test system: TSLP in HaCaT keratinocytes; details: 8 μg/ml, 1 h pre-treatment, TNF-α 100 ng/ml 24 h; compared to the control group FK506
# Method: (§1) HaCaT keratinocytes, a human skin keratinocyte cell line (obtained from the Korean Cell Line Bank), were seeded in a 12-well plate at a density of 1×10^5 cells per well and cultured for at least 12 hours in a 37° C. humidified incubator containing 5% carbon dioxide and saturated water vapor. After pre-treatment with the compound 77 of the present invention (0 μg/ml or 8 μg/ml) or the immunosuppressant FK506 (FK-506 monohydrate, manufacturer: MilliporeSigma product number: F4679, USA) as a control for 1 hour, TNF-α (Tumor Necrosis Factor-α human, manufacturer: MilliporeSigma) was treated for 24 hours as an inflammatory response inducer at a concentration of 100 ng/ml. Next, the supernatant was obtained and TSLP and IL-6 ELISA (Human TSLP and IL-6 ELISA Kit, pink-ONE, manufacturer: Komabiotech) each was performed. Specifically, the contents of TSLP and IL-6 in the supernatant were quantified according to the protocol of the ELISA kit with the supernatant, and absorbance was measured at a wavelength of 450 nm using a microplate reader (Multiskan Sky, manufacturer: Thermo Fisher Scientific, product number: 51119600DP).
# [3] = test system: interleukin-6 in HaCaT keratinocytes; details: 8 μg/ml, 1 h pre-treatment, TNF-α 100 ng/ml 24 h; compared to the control group FK506
# Method: as §1
smiles,measurement,setting,value
"CCCC(N)C(=O)NCCc1ccc(-c2ccc(C(F)(F)F)cc2)cc1.Cl (racemic) [Compound 77, (R)/(S)-2-amino-N-(2-(4′-(trifluoromethyl)-[1,1′-biphenyl]-4-yl)ethyl)pentanamide hydrochloride]",IL-6,"[1]; Table 1, LPS 1 μg/mL 24 h, compound 77 at 8 μg/ml, FK506 concentration not given",191.20 pg/mL
same,IL-6 (%),"[1]; Table 1, relative to IL-6 production induced by LPS (100%), compound 77 at 8 μg/ml, FK506 concentration not given",13.19%
same,Relative amount of IL-6 compared to LPS induction (%),"[1]; Table 3, LPS 1 μg/mL 24 h, compounds at 8 μg/mL (FIG. 1), LPS alone = 100%",5%
same,amount of TSLP,[2],significantly reduced
same,amount of interleukin-6,[3],significantly reduced
